The source of these data is publication PMC3939009, “Thrombin inhibitory activity of some polyphenolic compounds” (Medicinal Chemistry Research, 2013).

Experiment [1] has as its system human thrombin. In words: Thrombin-induced platelet aggregation (turbidimetric). The format is cell-based. Particulars: compound 50 μM preincubated with thrombin. The protocol: Blood samples in 0.32 % sodium citrate from healthy volunteers without cardiovascular disorders were collected, untreated with antiplatelet drugs. […] Platelets were isolated from PRP using BSA–Sepharose 2B gel filtration method according to Walkowiak et al. ([2000]). […] In these preparations, to nine volumes of thrombin one volume of polyphenolic compounds was added (final thrombin concentration was 15.8 nM). All tested compounds were dissolved in 50 % DMSO to the initial concentration of 10 mM; other solutions of compounds were also prepared in 50 % DMSO (prepared in 50 mM TBS, pH 7.4). […] The platelet aggregation was measured by turbidimetric method (Saluk-Juszczak et al., [2007]) using dual-channel Chrono-log optical aggregometer (Chronolog, USA). […] Platelet suspensions were pre-warmed at 37 °C with stirring.

Experiment [2] deals with human thrombin (Homo sapiens, UniProt P00734). In words: Analysis of thrombin inhibition parameters (Lineweaver–Burk curves). The format is biochemical. More on the design: Thrombin, also known as an active plasma coagulation factor II; purchased Sigma-Aldrich Chemical Co. (St. Louis, MO, USA) T7009. How it is done: Absorbance was monitored every 12 s for 10 min in a 96-well microplate reader. The velocity of reaction was expressed as the increase in product (pNA) over time (∆ μmol/min) using a computer program Mikcroplate Manager® 8 and the extinction coefficient of p-nitroaniline. […] Then, the Lineweaver–Burk ([1934]) curves for thrombin in the presence and in the absence of polyphenol compounds were plotted. The Lineweaver–Burk equation, which is a transformation of the Michaelis–Menten model, looks as follows: 1/V=Km/Vmax·1/[S]+1/Vmax

Turning to `O=c1c(O)c(-c2ccc(O)c(O)c2)oc2cc(O)cc(O)c12` [Quercetin, quercetin], the “Platelet aggregation, % of control” value in the experiment on human thrombin [1] worked out at 4%. The molecule also showed a k cat on human thrombin [2] (compound at IC50 concentration, k cat = V max/E 0, control 29.1) of 27.8 s⁻¹. Also, the Type of inhibition result on human thrombin [2] (from Lineweaver–Burk curves) is given as “competitive inhibitors”. Further, the “V max of chromogenic substrate hydrolysis by thrombin” value at human thrombin [2] (thrombin incubated with compound at IC50 concentration, control 30.7) was 29.4 10^−6 mol/min. Further, on human thrombin [2] (thrombin incubated with compound at IC50 concentration, control 158.7), the “K m of chromogenic substrate hydrolysis by thrombin” value is recorded as 633.8 10^−6 M.
